# Data reported in PubChem BioAssay AID1963835 (Molecular Pharmacology Branch, DTP, NCI, 2024).
# System: 699152-130-R-J1-PDC complex spheroid viability
# Assay: Anticancer human tumor 699152-130-R-J1-PDC patient-derived pancreatic carcinoma cell line growth inhibition [POLQ]
# Details: for IC50: curve of first compound; for viability, T/C: stronger effect = lower value
# Method: Multicellular complex tumor spheroid response to Polymerase (POL) inhibitors (novobiocin, ART-558, RP6685) in combination with a variety of drugs and investigational agents in selected tumor cell lines
# The POL inhibitors (novobiocin, ART-558, and RP6685) were evaluated both individually and in combination with standard of care and investigational anticancer small molecules within a complex spheroid model of solid tumors. . Complex spheroids include a stromal component modeled by human endothelial cells (HUVEC) and fibroblasts modeled by human mesenchymal stem cells (MSCs). The concentration ranges selected for each drug and investigational agent were based upon clinically achievable concentrations if the clinical Cmax of the agent was known.
# Compounds. The drugs and investigational agents: novobiocin (NSC847541), ART-558 (NSC835418), RP-6685 (NSC848927), peposertib (NSC802822), ceralasertib (NSC780249), elimusertib (NSC800525), camonsertib (NSC841442), AZD-1390 (NSC803789), olaparib (NSC753686), talazoparib (NSC767125), rucaparib (NSC756644), sotorasib (NSC818433), MRTX-1133 (NSC836407), SN-38 (NSC673596), topotecan (NSC609699), epotoside (NSC141540), doxorubicin (NSC123127), gemcitabine (NSC613327), 5-fluorouracil (NSC19893), paclitaxel (NSC125973), vemurafenib (NSC761431), MSA-2 (NSC828583), SN-011 (NSC837082), adavosertib (NSC754352), prexasertib (NSC758257), carboplatin (NSC241240) and oxaliplatin (NSC266046), were obtained from the National Cancer Institute (NCI) Developmental Therapeutics Program Chemical Repository (21). The FDA-approved anticancer drug set is available from the Developmental Therapeutics Program at https://dtp.cancer.gov/organization/dscb/obtaining/. […] The stock solutions were prepared in dimethyl sulfoxide (DMSO, Sigma-Aldrich, St. Louis, MO, cat. D2650), except for the platinum compounds which were prepared in saline (Quality Biological, Gaithersburg, MD, cat. 114-055-101), at 800-fold the tested concentration and stored at -70 degrees C prior to their use. All drugs and investigational agents were tested over a range starting from a high concentration at or near the clinical Cmax and decreasing in half-log increments. If the clinical Cmax for an agent had not been determined, the highest concentration tested was 10 microM, except for SN-38, which was tested at a high concentration of 1 microM.
# Cell Culture. All cells were maintained in an incubator at 37 degrees C and 5% CO2 with 95% humidity. The PDC lines were cultured according to standard operating procedures established by the NCI PDMR (https://pdmr.cancer.gov). Table 3 of the manuscript, lists the cell lines along with the number of the three cell types plated to form the mct-spheroids and media for tumor cell growth. After thawing, all PDC lines, except 997537-175-T-J1-PDC and 415267-285-R-J2-PDC, were cultured in Matrigel-coated flasks prepared with a working solution of 1X Ham's F-12 nutrient mix, without supplementation (Thermo Fisher Scientific, cat. 11765054), 100 U/mL penicillin-streptomycin (Thermo Fisher Scientific, cat. 15140122), and 2.5% Matrigel (Corning Inc., Corning, NY, cat. 354248) for the first three passages. The two PDC lines 997537-175-T-J1-PDC and 415267-285-R-J2-PDC were cultured on uncoated flasks. The 857933-349-R-J2-PDC line was cultured in 6C/Colon 1B media containing advanced DMEM/F-12 (Thermo Fisher Scientific, cat. 12634028), 10 mM HEPES (Thermo Fisher Scientific, cat. 15630080), 1X GlutaMAX supplement (Thermo Fisher Scientific, cat. 35050061), 0.1 mg/mL primocin (InvivoGen, San Diego, CA, cat. ant-pm-2), 10% defined fetal bovine serum, heat inactivated (HyClone Laboratories Inc., Logan, UT, cat. SH30070.03HI), 50% L-WRN conditioned media (ATCC, cat. CRL-3276), 1.25 mM N-Acetyl-L-cysteine (Sigma-Aldrich, cat. A9165), 10 mM nicotinamide (Sigma-Aldrich, cat. N0636), 1X B-27 supplement (Thermo Fisher Scientific, cat. 17504044), 1X N-2 supplement (Thermo Fisher Scientific, cat. […]
# [1] = second compound 0.0316 µM, first compound 0.0316 µM
# [2] = second compound 0.0316 µM, first compound 0.1 µM
# [3] = second compound 0.0316 µM, first compound 0.316 µM
# [4] = second compound 0.0316 µM, first compound 1 µM
# [5] = second compound 0.1 µM, first compound 0.0316 µM
# [6] = second compound 0.1 µM, first compound 0.1 µM
# [7] = second compound 0.1 µM, first compound 0.316 µM
# [8] = second compound 0.1 µM, first compound 1 µM
# [9] = second compound 0.316 µM, first compound 0.0316 µM
# [10] = second compound 0.316 µM, first compound 0.1 µM
# [11] = second compound 0.316 µM, first compound 0.316 µM
# [12] = second compound 0.316 µM, first compound 1 µM
# [13] = second compound 1 µM, first compound 0.0316 µM
# [14] = second compound 1 µM, first compound 0.1 µM
# [15] = second compound 1 µM, first compound 0.316 µM
# [16] = second compound 1 µM, first compound 1 µM
# [17] = second compound 3.16 µM, first compound 0.0316 µM
# [18] = second compound 3.16 µM, first compound 0.1 µM
# [19] = second compound 3.16 µM, first compound 0.316 µM
# [20] = second compound 3.16 µM, first compound 1 µM
# [21] = second compound 10 µM, first compound 0.0316 µM
# [22] = second compound 10 µM, first compound 0.1 µM
# [23] = second compound 10 µM, first compound 0.316 µM
# [24] = second compound 10 µM, first compound 1 µM
# 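Also: spheroids exposed to agents for 7 days before viability reading.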
# 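For viability, T/C in this document: percent of DMSO vehicle control viability so 100% = vehicle and 0% = no viable signal.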
smiles,measurement,setting,value
C=CC(=O)N1CCN(c2nc(=O)n(-c3c(C)ccnc3C(C)C)c3nc(-c4c(O)cccc4F)c(F)cc23)C(C)C1 (centres undefined) + Nc1ccc(C#CCN(C(=O)Cc2ncc(C(F)(F)F)cc2C(F)(F)F)c2ccc(F)cc2)nn1,IC50,second compound 0.0316 µM,> 10 µM
same,IC50,second compound 0.1 µM,> 10 µM
same,IC50,second compound 0.316 µM,> 10 µM
same,IC50,second compound 1 µM,> 10 µM
same,IC50,second compound 3.16 µM,> 10 µM
same,IC50,second compound 10 µM,> 10 µM
same,"viability, T/C",[1],99%
same,"viability, T/C",[2],91.6%
same,"viability, T/C",[3],102%
same,"viability, T/C",[4],117%
same,"viability, T/C","second compound 0.0316 µM, first compound 3.16 µM",115%
same,"viability, T/C","second compound 0.0316 µM, first compound 10 µM",103%
same,"viability, T/C",[5],92.8%
same,"viability, T/C",[6],89.6%
same,"viability, T/C",[7],106%
same,"viability, T/C",[8],116%
same,"viability, T/C","second compound 0.1 µM, first compound 3.16 µM",123%
same,"viability, T/C","second compound 0.1 µM, first compound 10 µM",113%
same,"viability, T/C",[9],102%
same,"viability, T/C",[10],106%
same,"viability, T/C",[11],98.8%
same,"viability, T/C",[12],118%
same,"viability, T/C","second compound 0.316 µM, first compound 3.16 µM",119%
same,"viability, T/C","second compound 0.316 µM, first compound 10 µM",97.4%
same,"viability, T/C",[13],104%
same,"viability, T/C",[14],105%
same,"viability, T/C",[15],103%
same,"viability, T/C",[16],111%
same,"viability, T/C","second compound 1 µM, first compound 3.16 µM",124%
same,"viability, T/C","second compound 1 µM, first compound 10 µM",117%
same,"viability, T/C",[17],103%
same,"viability, T/C",[18],125%
same,"viability, T/C",[19],102%
same,"viability, T/C",[20],119%
same,"viability, T/C","second compound 3.16 µM, first compound 3.16 µM",114%
same,"viability, T/C","second compound 3.16 µM, first compound 10 µM",95.9%
same,"viability, T/C",[21],110%
same,"viability, T/C",[22],110%
same,"viability, T/C",[23],122%
same,"viability, T/C",[24],109%
same,"viability, T/C","second compound 10 µM, first compound 3.16 µM",125%
same,"viability, T/C","second compound 10 µM, first compound 10 µM",121%
C=CCn1c(=O)c2cnc(Nc3ccc(N4CCN(C)CC4)cc3)nc2n1-c1cccc(C(C)(C)O)n1 + COC1C(OC(N)=O)C(O)C(Oc2ccc3c(O)c(NC(=O)c4ccc(O)c(CC=C(C)C)c4)c(=O)oc3c2C)OC1(C)C,IC50,second compound 0.0316 µM,> 1 µM
same,IC50,second compound 0.1 µM,> 1 µM
same,IC50,second compound 0.316 µM,> 1 µM
same,IC50,second compound 1 µM,> 1 µM
same,IC50,second compound 3.16 µM,> 1 µM
same,IC50,second compound 10 µM,> 1 µM
same,"viability, T/C","second compound 0.0316 µM, first compound 0.00316 µM",90.2%
same,"viability, T/C","second compound 0.0316 µM, first compound 0.01 µM",98.2%
same,"viability, T/C",[1],99.4%
same,"viability, T/C",[2],90.2%
same,"viability, T/C",[3],94.6%
same,"viability, T/C",[4],77.4%
same,"viability, T/C","second compound 0.1 µM, first compound 0.00316 µM",102%
same,"viability, T/C","second compound 0.1 µM, first compound 0.01 µM",102%
same,"viability, T/C",[5],109%
same,"viability, T/C",[6],95%
same,"viability, T/C",[7],98.7%
same,"viability, T/C",[8],75%
same,"viability, T/C","second compound 0.316 µM, first compound 0.00316 µM",97.7%
same,"viability, T/C","second compound 0.316 µM, first compound 0.01 µM",95.1%
same,"viability, T/C",[9],94.8%
same,"viability, T/C",[10],104%
same,"viability, T/C",[11],104%
same,"viability, T/C",[12],70.7%
same,"viability, T/C","second compound 1 µM, first compound 0.00316 µM",108%
same,"viability, T/C","second compound 1 µM, first compound 0.01 µM",93.9%
same,"viability, T/C",[13],92.1%
same,"viability, T/C",[14],99.5%
same,"viability, T/C",[15],90%
same,"viability, T/C",[16],74%
same,"viability, T/C","second compound 3.16 µM, first compound 0.00316 µM",107%
same,"viability, T/C","second compound 3.16 µM, first compound 0.01 µM",92.9%
same,"viability, T/C",[17],105%
same,"viability, T/C",[18],96.6%
same,"viability, T/C",[19],96.4%
same,"viability, T/C",[20],76.5%
same,"viability, T/C","second compound 10 µM, first compound 0.00316 µM",99.1%
same,"viability, T/C","second compound 10 µM, first compound 0.01 µM",101%
same,"viability, T/C",[21],96.3%
same,"viability, T/C",[22],98.7%
same,"viability, T/C",[23],95%
same,"viability, T/C",[24],68%
